The record followed here is US20230181905A1, “Systems, Devices, and Methods for Enhancing the Neuroprotective Effects of Non-Invasive Gamma Stimulation with Pharmacological Agents” (Massachusetts Institute of Technology, priority 2021, published 2023).

What all share (type): in vivo, mouse
For test [1], the system named is CSF1R resistant progenitor-like MAC2+ microglia. The test can be described thus: MAC2+ microglia immunohistochemistry. The settings on record: 5×FAD mice; Plx3397 diet 50 days vs control. On the procedure:
To study how CSF1R-sensitive microglia impact neural activity in the context of AD, an amyloidosis mouse model, the 5×FAD mice—which is a most commonly used mouse model for AD, was subject to a diet containing CSF1R inhibitor Plx3397 for 50 days (FIG. 21A). The CSF1R inhibitor Plx3397 (600 ppm) was employed, which was previously shown to effectively reduce microglia in vivo. Control mice were age-matched 5×FAD litters that received a regular diet. Electrophysiological recordings were performed using linear probes. Post-recording, the recording site in the visual cortex was verified by histology (FIG. 21), and microglia reduction was evaluated by assessing IBA1+ cell numbers.
Microglia: Iba1 immunoreactive cells were considered microglia. Using an LSM 710 or LSM 880 with a 10× (for Iba1+ cell counts) or 40× (for morphological analysis) objective z stacks of the entire slice thickness […] with […] step size were acquired. Imaris was used for 3D rendering of images to quantify the total volume of microglia. MAC2+ cells were counted manually using Image J.

Another test has as its system IBA1+ microglia. The test can be described thus: Iba1+ microglia counts in APOE4-KI 5×FAD hippocampus. On the procedure:
Hippocampal mouse brain sections were stained for Iba1, a microglia/macrophage specific marker, and cell numbers were counted. […] Next, 7-8 month old male APOE4-KI 5×FAD animals were treated with 3 weeks of PLX3397 diet (or control), followed by 21 days of A+V GENUS, during which animals remained on their diets (FIG. 37).

The subject of test [2] is myelin basic protein (MBP). In words: MBP levels and myelination of PV axons. The note with it: 5×FAD mice. The source says:
(§1) It was next sought to understand whether Plx3397 administration-dependent electrophysiological alterations were attributed to changes in amyloid plaque levels. […] In the cuprizone model of demyelination, Plx33977 administration preserved myelin. It was thus considered whether electrophysiological alterations are associated with myelin levels in Plx3397 treated 5×FAD mice.
These observations point to synaptic connectivity, PNN extracellular architecture, and myelination as biological processes that GENUS impacts to improve the outcomes in Plx3397 administered 5×FAD mice. To further validate this, additional biochemical analyses were performed. […] Next, it was observed that Plx3397 (130.4±7.178), GENUS (116.2±5.225) and Plx3397+GENUS (119.0±6.325) all increased the WFA signals with the highest levels in Plx3397 alone group compared to controls (100±4.655) (FIGS. 25D, 25F). […] Synaptic input arriving within the PNN of parvalbumin (PV) interneurons and the PNN architecture are shown to modulate the activity of PV interneurons robustly. […] Next, although the total MBP levels was not affected (100±19.58, 132.4±30.10, 140.2±25.31, & 133.4±22.13 in control, Plx3397, GENUS, Plx3397+Genus groups, respectively), GENUS increased myelin ensheathment of axons of PV interneurons in Plx3397 administered 5×AFAD mice (20.75±1.45, 25.44±2.83, 37.91±4.56, & 31.3±3.21) (FIGS. 25D, 25H, 25I and FIG. 30C). Collectively, these findings show improved synaptic connectivity and axonal myelination of PV interneurons after repeated GENUS in Plx3397 administered 5×FAD mice.

The next test deals with D54D2 positive amyloid. In words: D54D2 amyloid immunohistochemistry in 5×FAD mice.
Description: as §1

The subject of a further test is vGLUT1. In words: vGLUT1 western blot and puncta, overall and within WFA. The note with it: 5×FAD mice. From the text: It was reasoned that the increased WFA coverage and enhanced phase locking of neurons after these treatments are related. […] WFA has been predominantly observed around interneurons, specifically PV interneurons. vGLUT1 (Synaptic Systems, #1135 302), an excitatory synaptic marker, was labeled with WFA. It was observed that the overall vGLUT1 signal was higher after Plx3397+GENUS treatment in mice (ANOVA, F (3,22)=3,686, P=0.0273) (FIGS. 18A, 18B). WFA was 3D rendered and surface created and examined (vGLUT1) within WFA, and observed increased vGLUT1 within WFA (Nested ANOVA, F (3,29)=3.377, P=0.0493) (FIGS. 18A, 18C).
vGAT and vGLUT1 puncta: LSM 710, with a 40× objective, was used to acquire the images. The entire […] thickness of the slices was acquired in Z stacks—80 per image (step of 0.5 μm). The spot-count inbuilt function in Imarisx64 9.3 was used to count cells automatically.
These observations point to synaptic connectivity, PNN extracellular architecture, and myelination as biological processes that GENUS impacts to improve the outcomes in Plx3397 administered 5×FAD mice. To further validate this, additional biochemical analyses were performed. […]
The brain was perfused with PBS and fixed with 4% PFA. […] Signal intensities were quantified using ImageJ 1.46q and normalized to values of loading control.
(In western blotting, separated proteins are transferred to a membrane and probed.)

Setting [3] is: hippocampus, chronic Plx3397 vs control.

In the case of `FC(F)(F)c1ccc(CNc2ccc(Cc3c[nH]c4ncc(Cl)cc34)cn2)cn1` [Plx3397, Pexidartinib], in test [1], the “CSF1R resistant progenitor-like MAC2+ microglia” value is “no difference”. Moreover, the “microglia numbers (Iba1+ cell counts), GENUS vs no GENUS after depletion” value in the test with IBA1+ microglia (APOE4-KI 5×FAD mice on PLX3397 diet) is reported as “not further modified”. Further, the microglia numbers entry with IBA1+ microglia (male APOE4-KI 5×FAD mice, hippocampus, PLX3397 diet vs standard diet) is “significant reduction”. In addition, the MBP levels entry in test [2] (setting [3]) is given as “did not affect”. Moreover, the “overall MBP signals” value in test [2] (visual cortex, Plx3397 50 days, not significantly affected) is 953800000±1277515477 au. In test [2] (western blot, control 100±19.58, not affected), the “total MBP levels” value came to 132.4±30.10. In addition, the “myelin ensheathment of axons of PV interneurons” value in test [2] (control 20.75±1.45) was 25.44±2.83. Moreover, the amyloid entry in the test with D54D2 positive amyloid (setting [3]) is listed as “did not affect”. The “amyloid levels (D54D2 positive amyloid signal)” value with D54D2 positive amyloid (visual cortex, chronic Plx3397, not affected vs control) is 9894±1181 au. Moreover, the “vGLUT1 level (western blot)” value in the test on vGLUT1 (visual cortex, control 100±7.30) is listed as 130.1±10.05. Moreover, the “vGLUT1 synaptic puncta in the WFA of PV interneurons” value in the test on vGLUT1 (controls 313.4±13.20) is listed as 332.7±13.14 % of no treatment control.
